Experimental data: the NIST ThermoML archive (doi:10.1016/j.jct.2019.07.013)
± gives the expanded uncertainty stated by the source.

Details: for mass density: 100 kPa, Vibrating tube method; for mass density / electrical conductivity: Liquid; for electrical conductivity: 101.33 kPa, Direct current cell with electrodes; for Glass transition temperature: DSC

Row | SMILES | mass density (283.15 K) | mass density (288.15 K) | mass density (293.15 K) | mass density (298.15 K) | mass density (303.15 K) | mass density (308.15 K) | mass density (313.15 K) | mass density (318.15 K) | mass density (323.15 K) | electrical conductivity (293.15 K) | electrical conductivity (298.15 K) | electrical conductivity (303.15 K) | electrical conductivity (308.15 K) | electrical conductivity (313.15 K) | electrical conductivity (318.15 K) | electrical conductivity (323.15 K) | Glass transition temperature | Normal melting temperature (Crystal, DTA)
1 | CCCCCC[n+]1ccn(C)c1.O=S(=O)([N-]S(=O)(=O)C(F)(F)F)C(F)(F)F | 1386 ± 5 kg/m3 | 1381.41 ± 5 kg/m3 | 1376.82 ± 5 kg/m3 | 1371.8 ± 5 kg/m3 | 1367.65 ± 5 kg/m3 | 1363.1 ± 5 kg/m3 | 1357.5 ± 5 kg/m3 | 1352.61 ± 5 kg/m3 | 1349.44 ± 5 kg/m3 |  |  |  |  |  |  |  |  | 
2 | C=CCCn1cc[n+](CCCC)c1.[Br-] [1-(3-butenyl)-3-butylimidazolium bromide] | 1229.25 ± 6.8 kg/m3 | 1225.9 ± 6.7 kg/m3 | 1222.43 ± 6.7 kg/m3 | 1218.74 ± 6.7 kg/m3 | 1214.96 ± 6.7 kg/m3 | 1211.48 ± 6.7 kg/m3 | 1207.96 ± 6.6 kg/m3 | 1204.4 ± 6.6 kg/m3 | 1200.81 ± 6.6 kg/m3 | 0.00255 ± 0.00018 S/m | 0.00445 ± 0.00031 S/m | 0.00733 ± 0.00051 S/m | 0.0114 ± 0.0008 S/m | 0.0175 ± 0.0012 S/m | 0.0256 ± 0.0018 S/m | 0.0366 ± 0.0026 S/m | -49.00 ± 1.2 °C | 
3 | C=CCCn1cc[n+](CC)c1.[Br-] [1-(3-butenyl)-3-ethylimidazolium bromide] | 1305.11 ± 5.7 kg/m3 | 1301.34 ± 5.7 kg/m3 | 1297.64 ± 5.7 kg/m3 | 1294.11 ± 5.6 kg/m3 | 1290.54 ± 5.6 kg/m3 | 1286.92 ± 5.6 kg/m3 | 1283.26 ± 5.6 kg/m3 | 1279.57 ± 5.6 kg/m3 | 1275.88 ± 5.6 kg/m3 | 0.014 ± 0.00098 S/m | 0.0226 ± 0.0016 S/m | 0.0353 ± 0.0025 S/m | 0.0524 ± 0.0037 S/m | 0.0747 ± 0.0052 S/m | 0.12 ± 0.0084 S/m | 0.162 ± 0.011 S/m | -63.48 ± 1.2 °C | 70.68 ± 1.1 °C
4 | C=CCCn1cc[n+](C)c1.[Br-] [1-(3-butenyl)-3-methylimidazolium bromide] | 1354.24 ± 15 kg/m3 | 1350.42 ± 15 kg/m3 | 1346.67 ± 14 kg/m3 | 1343.07 ± 14 kg/m3 | 1339.41 ± 14 kg/m3 | 1335.7 ± 14 kg/m3 | 1331.9 ± 14 kg/m3 | 1328.14 ± 14 kg/m3 | 1324.34 ± 14 kg/m3 | 0.0126 ± 0.00089 S/m | 0.0214 ± 0.0015 S/m | 0.0343 ± 0.0024 S/m | 0.0522 ± 0.0037 S/m | 0.0772 ± 0.0054 S/m | 0.116 ± 0.0081 S/m | 0.162 ± 0.011 S/m | -49.60 ± 1.2 °C | 
5 | O [water] | 999.7 ± 0.05 kg/m3 | 999.05 ± 0.05 kg/m3 |  |  |  |  | 992.31 ± 0.06 kg/m3 | 990.42 ± 0.06 kg/m3 | 988.3 ± 0.06 kg/m3 |  |  |  |  |  |  |  |  | 
